Our source for the GI50 and TGI values is PubChem BioAssay (NCI).

Some test systems named below: BT-549 breast; CCRF-CEM leukemia; HCT-116 colon; HCT-15 colon; HOP-62 NSCLC; IGROV1 ovarian; KM12 colon; OVCAR-3 ovarian; TK-10 renal; UO-31 renal.
What all share (assay): NCI anticancer screen, dose series, 48 h

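How tested: cells in 96-well plates exposed to compound for 48 hours at five concentrations. GI50: concentration for 50% inhibition of growth. TGI marks complete inhibition of growth.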 Bounds are passed on as bounds.

Take `CO[C@H]1C[C@@H]2CC[C@@H](C)[C@@](O)(O2)C(=O)C(=O)N2CCCC[C@H]2C(=O)O[C@H]([C@H](C)C[C@@H]2CC[C@@H](OC(=O)C(C)(CO)CO)[C@H](OC)C2)CC(=O)[C@H](C)/C=C(\C)[C@@H](O)[C@@H](OC)C(=O)[C@H](C)C[C@H](C)\C=C/C=C/C=C/1C`: the GI50 was 0.00363 µM in the assay on BT-549 breast; 0.0368 µM in the assay on CCRF-CEM leukemia; greater than 10 µM in the assay on HCT-116 colon; 0.112 µM in the assay on HCT-15 colon; 0.0147 µM with HOP-62 NSCLC; less than 0.001 µM in the assay with IGROV1 ovarian. The GI50 in the assay on KM12 colon was greater than 10 µM; in the assay on OVCAR-3 ovarian it was 0.685 µM; with UO-31 renal, 0.00102 µM. Further, the TGI with BT-549 breast, in the assay on CCRF-CEM leukemia, in the assay with HCT-116 colon, in the assay on HCT-15 colon, in the assay on HOP-62 NSCLC and with IGROV1 ovarian was greater than 10 µM throughout. The TGI with KM12 colon, in the assay on OVCAR-3 ovarian, with TK-10 renal and in the assay on UO-31 renal was greater than 10 µM each time.

With `CSc1ccc(C2=C(c3ccccc3)C(=O)OC2)cc1`, the GI50 with BT-549 breast was 16.2 µM; in the assay on CCRF-CEM leukemia, 0.508 µM; in the assay on HCT-116 colon, 0.637 µM; with HCT-15 colon, 0.202 µM; in the assay with HOP-62 NSCLC, 1.96 µM; in the assay on IGROV1 ovarian it was 2.18 µM. Moreover, the GI50 with KM12 colon is 0.356 µM; in the assay on OVCAR-3 ovarian, 0.188 µM; in the assay with TK-10 renal, 1.49 µM; in the assay on UO-31 renal, 2.66 µM. For the same molecule, the TGI in the assay on BT-549 breast is greater than 100 µM; in the assay on CCRF-CEM leukemia, 2.85 µM; with HCT-116 colon it was 61.7 µM; with HCT-15 colon it was 3.46 µM; in the assay on HOP-62 NSCLC it was greater than 70 µM; in the assay with IGROV1 ovarian, greater than 63.9 µM. In addition, the TGI was greater than 77 µM in the assay on KM12 colon, 0.568 µM in the assay with OVCAR-3 ovarian, 18.4 µM in the assay with TK-10 renal and greater than 80.3 µM in the assay on UO-31 renal.

Regarding `COc1cc2cc(Oc3ccc(NC(=O)Nc4cc(C(F)(F)F)cc(C(F)(F)F)c4)cc3)c(C)nc2cc1OCCN1CCOCC1`, the GI50 in the assay on BT-549 breast is 1.87 µM; in the assay with CCRF-CEM leukemia it was 1.41 µM; with HCT-116 colon, 1.42 µM; with HCT-15 colon, 1.1 µM; with HOP-62 NSCLC it was 2.2 µM; with IGROV1 ovarian, 1.54 µM. Also, the GI50 is 1.53 µM with KM12 colon, 1.43 µM with OVCAR-3 ovarian, 3.7 µM in the assay on TK-10 renal and 1.01 µM with UO-31 renal. Also, the TGI in the assay on BT-549 breast was found to be 7.35 µM; in the assay on CCRF-CEM leukemia it was 6.57 µM; in the assay with HCT-116 colon it was 5.33 µM; in the assay with HCT-15 colon, 2.77 µM; with HOP-62 NSCLC, 9.16 µM; in the assay with IGROV1 ovarian it was 6.9 µM. Further, the TGI in the assay on KM12 colon was determined as 5.95 µM; in the assay with OVCAR-3 ovarian, 5.28 µM; in the assay with TK-10 renal, 12.5 µM; with UO-31 renal it was 4.06 µM.

As for `CCOCC1(COCC)CCC(c2[nH]ncc2CN(C)CCNC)CC1`, the GI50 with BT-549 breast, with CCRF-CEM leukemia, in the assay with HCT-116 colon, with HCT-15 colon, in the assay with HOP-62 NSCLC and with IGROV1 ovarian was greater than 100 µM each time. The GI50 in the assay with KM12 colon, with OVCAR-3 ovarian, with TK-10 renal and with UO-31 renal was greater than 100 µM throughout. Also, the TGI with BT-549 breast, in the assay with CCRF-CEM leukemia, in the assay on HCT-116 colon, in the assay on HCT-15 colon, with HOP-62 NSCLC and in the assay with IGROV1 ovarian was greater than 100 µM in each case. Besides, the TGI with KM12 colon, with OVCAR-3 ovarian, in the assay with TK-10 renal and in the assay with UO-31 renal was greater than 100 µM in each case.

Regarding `COc1cc2oc(-c3cccc(C(=O)Nc4ccc(Cl)cc4)c3)cc(=O)c2c(OC)c1OC`, the GI50 with BT-549 breast was 1.18 µM; in the assay with CCRF-CEM leukemia it was 2.28 µM; in the assay with HCT-116 colon, 1.9 µM; in the assay with HCT-15 colon, 1.61 µM; in the assay on HOP-62 NSCLC, 2.66 µM; in the assay on IGROV1 ovarian it was 2.31 µM. For the same molecule, the GI50 was 2.37 µM in the assay with KM12 colon, 3.6 µM with OVCAR-3 ovarian, 3.22 µM with TK-10 renal and 2.85 µM in the assay on UO-31 renal. In addition, the TGI in the assay on BT-549 breast was greater than 100 µM; in the assay with CCRF-CEM leukemia, greater than 100 µM; with HCT-116 colon, greater than 100 µM; in the assay with HCT-15 colon it was greater than 100 µM; in the assay with HOP-62 NSCLC, 9.89 µM; with IGROV1 ovarian, greater than 100 µM. For the same molecule, the TGI with KM12 colon, with OVCAR-3 ovarian, in the assay with TK-10 renal and in the assay with UO-31 renal was greater than 100 µM each time.

As to `c1cc(N[C@@H]2CCNC2)nc(-c2cnc3ccc(-c4cn[nH]c4)cn23)c1`, the GI50 in the assay with BT-549 breast is 3.06 µM; in the assay with CCRF-CEM leukemia it was 3.26 µM; in the assay on HCT-116 colon, 3.43 µM; with HCT-15 colon, greater than 100 µM; in the assay on HOP-62 NSCLC, 6.23 µM; with IGROV1 ovarian, 5.46 µM. Moreover, the GI50 with KM12 colon is 0.868 µM; with OVCAR-3 ovarian, 2.92 µM; in the assay on TK-10 renal, 15.3 µM; with UO-31 renal, greater than 69.3 µM. Also, the TGI in the assay with BT-549 breast was 8.32 µM; with CCRF-CEM leukemia it was 14.4 µM; in the assay on HCT-116 colon, greater than 100 µM; in the assay on HCT-15 colon it was greater than 100 µM; with HOP-62 NSCLC, 29.6 µM; in the assay on IGROV1 ovarian, 17.6 µM. Also, the TGI was 51.4 µM in the assay with KM12 colon, 24.8 µM in the assay with OVCAR-3 ovarian, 62.8 µM with TK-10 renal and greater than 100 µM with UO-31 renal.

As for `O=C(CS(=O)(=O)c1nc2ccccc2nc1-c1ccccc1)Nc1ccc(F)cc1`, the GI50 in the assay on BT-549 breast is 29.1 µM; in the assay with CCRF-CEM leukemia, 3.15 µM; in the assay with HCT-116 colon, 25.7 µM; in the assay with HCT-15 colon it was 39.9 µM; in the assay on HOP-62 NSCLC, greater than 100 µM; in the assay on IGROV1 ovarian, 74 µM. In addition, the GI50 is 31 µM with KM12 colon, 30.6 µM in the assay on OVCAR-3 ovarian, greater than 100 µM with TK-10 renal and 59.1 µM with UO-31 renal. Further, the TGI is greater than 100 µM in the assay with BT-549 breast; 18.8 µM with CCRF-CEM leukemia; greater than 100 µM with HCT-116 colon; greater than 100 µM in the assay on HCT-15 colon; greater than 100 µM in the assay with HOP-62 NSCLC; greater than 100 µM in the assay on IGROV1 ovarian. Besides, the TGI in the assay on KM12 colon was 97.7 µM; in the assay on OVCAR-3 ovarian it was greater than 100 µM; in the assay on TK-10 renal, greater than 100 µM; with UO-31 renal, greater than 100 µM.

On to `CN(C)c1ccc(/C=C\c2ccnc3ccccc23)cc1`, for which the GI50 in the assay on BT-549 breast is 5.09 µM; with CCRF-CEM leukemia, 5.13 µM; with HCT-116 colon, 5.34 µM; with HCT-15 colon, 4.42 µM; in the assay on HOP-62 NSCLC, 7.5 µM; in the assay with IGROV1 ovarian it was 8.85 µM. For the same molecule, the GI50 in the assay on KM12 colon was 3.66 µM; with OVCAR-3 ovarian it was 7.88 µM; in the assay on TK-10 renal it was 14.7 µM; in the assay with UO-31 renal, 4.4 µM. Besides, the TGI is 49.9 µM in the assay on BT-549 breast; greater than 100 µM with CCRF-CEM leukemia; greater than 52.6 µM in the assay on HCT-116 colon; greater than 100 µM with HCT-15 colon; greater than 67.9 µM with HOP-62 NSCLC; greater than 100 µM with IGROV1 ovarian. Further, the TGI in the assay with KM12 colon was 51 µM; with OVCAR-3 ovarian it was greater than 60 µM; in the assay with TK-10 renal, greater than 100 µM; in the assay with UO-31 renal, 68.7 µM.

As for `O=C(Nc1ccc(Oc2ccc(F)cc2)cc1)[C@@H]1C[C@@H](Cc2ccc(F)cc2)CN1C(=O)Cn1ccnn1`, the GI50 in the assay with BT-549 breast is 11.5 µM; in the assay on CCRF-CEM leukemia it was 5.24 µM; in the assay with HCT-116 colon, 4.79 µM; in the assay on HCT-15 colon, 5.04 µM; in the assay with HOP-62 NSCLC, 12.3 µM; in the assay on IGROV1 ovarian it was 8 µM. The GI50 in the assay on KM12 colon is 9.43 µM; in the assay with OVCAR-3 ovarian it was 8.12 µM; with TK-10 renal, 8.74 µM; in the assay on UO-31 renal, 3.5 µM. The TGI is 30 µM in the assay with BT-549 breast; greater than 100 µM in the assay on CCRF-CEM leukemia; 17.3 µM in the assay on HCT-116 colon; 23.1 µM in the assay on HCT-15 colon; 31.5 µM in the assay with HOP-62 NSCLC; 28.2 µM in the assay on IGROV1 ovarian. Moreover, the TGI in the assay on KM12 colon was 24.1 µM; in the assay with OVCAR-3 ovarian it was 26.7 µM; with TK-10 renal, 35.3 µM; in the assay on UO-31 renal, 25.2 µM.

As to `COc1cnc2c(c1)C(=O)c1c-2n(CCCNC2=NCCS2)c(=O)c2cc(F)ccc12`, the GI50 is 1.08 µM in the assay on BT-549 breast; 0.0402 µM in the assay on CCRF-CEM leukemia; 0.0825 µM with HCT-116 colon; 1.21 µM in the assay on HCT-15 colon; 0.0595 µM in the assay on HOP-62 NSCLC; 0.434 µM in the assay with IGROV1 ovarian. Besides, the GI50 is 0.577 µM in the assay with KM12 colon, 0.567 µM in the assay on OVCAR-3 ovarian, 1.12 µM in the assay with TK-10 renal and 0.108 µM with UO-31 renal. The TGI in the assay on BT-549 breast was 17.5 µM; with CCRF-CEM leukemia, 5.49 µM; in the assay with HCT-116 colon, 1.83 µM; in the assay with HCT-15 colon, 4.53 µM; in the assay on HOP-62 NSCLC, 2.6 µM; in the assay on IGROV1 ovarian it was 15.5 µM. Also, the TGI was 3.68 µM with KM12 colon, 2.27 µM in the assay on OVCAR-3 ovarian, 2.52 µM with TK-10 renal and 1.12 µM in the assay on UO-31 renal.

Consider `COc1cccc2c1-c1nc(N)c3c(OC)cccc3c1C2=O`, for which the TGI in the assay with BT-549 breast was greater than 100 µM; in the assay on CCRF-CEM leukemia it was greater than 100 µM; in the assay on HCT-116 colon it was greater than 100 µM; with HCT-15 colon, greater than 100 µM; in the assay with HOP-62 NSCLC it was 58.5 µM; in the assay with IGROV1 ovarian it was greater than 100 µM. For the same molecule, the TGI was 35.3 µM in the assay with KM12 colon, greater than 100 µM in the assay on OVCAR-3 ovarian, greater than 100 µM in the assay on TK-10 renal and greater than 100 µM in the assay on UO-31 renal.
